US20240174618A1, “SUBSTITUTED (2-HETEROARYLOXYPHENYL)SULFONATES, SALTS THEREOF AND THEIR USE AS HERBICIDAL AGENTS” (Bayer Aktiengesellschaft, priority 2021, published 2024)

Tests used:
Assay type in all cases: in vivo
[1] = test system: Amaranthus retroflexus (AMARE); experiment: A. Herbicidal pre-emergence efficacy, AMARE
Summary of the method: (§1)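 Applied before emergence onto covering soil at rates of 1280 g/ha or less, using 600 L/ha spray water with 0.5% additive. Scoring: visual % efficacy after ~3 weeks, greenhouse.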

[2] = test system: Poa annua (POAAN); experiment: B. Herbicidal post-emergence efficacy, POAAN
Summary of the method: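 Visual percent efficacy relative to untreated controls (0% unaffected, 100% dead), scored roughly 3 weeks after foliar spraying of one-leaf-stage pot-grown plants with WP or EC preparations at application rates up to 1280 g/ha in 600 L/ha water containing 0.5% additive.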

[3] = test system: Kochia scoparia (KCHSC); experiment: A. Herbicidal pre-emergence efficacy, KCHSC
Summary of the method: as §1

[4] = test system: Amaranthus retroflexus (AMARE); experiment: C. Herbicidal pre-emergence efficacy, AMARE; conditions: scored after about 3 weeks
From the text: (§2) Seeds of monocotyledonous and dicotyledonous weed plants and crop plants were placed in plastic or organic planting pots and covered with soil. The compounds of the invention, formulated in the form of wettable powders (WP) or as emulsion concentrates (EC), were then applied to the surface of the covering soil as aqueous suspension or emulsion with addition of 0.5% additive at a water application rate equivalent to 600 l/ha (converted). After the treatment, the pots were placed in a greenhouse and kept under good growth conditions for the test plants. After about 3 weeks, the efficacy of the preparations was scored visually in comparison with untreated controls as percentages. For example, • 100% efficacy=plants have died, • 0% efficacy=like untreated control plants.
(§3) Tables C1a to C14b below show the effects of selected compounds of the general formula (I) according to table 1 on various harmful plants at an application rate corresponding to 320 g/ha or less, which were obtained by the experimental procedure mentioned above.

[5] = test system: Abutilon theophrasti (ABUTH); experiment: A. Herbicidal pre-emergence efficacy, ABUTH; conditions: scored visually after about 3 weeks vs untreated controls
Summary of the method: as §1

[6] = test system: Viola tricolor (VIOTR); experiment: C. Herbicidal pre-emergence efficacy, VIOTR
From the text: as §2, §3

[7] = test system: Veronica persica (VERPE); experiment: C. Herbicidal pre-emergence efficacy, VERPE; conditions: scored after about 3 weeks
From the text: as §2, §3

[8] = 80 g/ha, scored visually after about 3 weeks vs untreated controls
[9] = pre-emergence, dosage 1280 g/ha

Row | Compound | Pre-emergence efficacy against AMARE in % ([1]; 80 g/ha) [%] | Pre-emergence efficacy against AMARE in % ([1]; 320 g/ha) [%] | Pre-emergence efficacy against AMARE in % ([1]; 1280 g/ha) [%] | Post-emergence efficacy against POAAN ([2]; 1280 g/ha) [%] | Pre-emergence efficacy against KCHSC [3, 8] [%] | Pre-emergence efficacy against KCHSC ([3]; pre-emergence, dosage 320 g/ha) [%] | Pre-emergence efficacy against KCHSC [3, 9] [%] | Pre-emergence efficacy against AMARE ([4]; 80 g/ha) [%] | Pre-emergence efficacy against AMARE ([4]; 320 g/ha) [%] | Pre-emergence efficacy against ABUTH ([5]; 1280 g/ha) [%] | Pre-emergence efficacy against VIOTR in % ([6]; application rate 80 g/ha) [%] | Pre-emergence efficacy against VIOTR in % ([6]; application rate 320 g/ha) [%] | Pre-emergence efficacy against VERPE ([7]; 320 g/ha) [%] | Pre-emergence efficacy against ABUTH ([5]; 80 g/ha) [%] | Pre-emergence efficacy against ABUTH ([5]; 320 g/ha) [%] | Post-emergence efficacy against POAAN ([2]; 320 g/ha) [%] | Pre-emergence efficacy against VERPE ([7]; 80 g/ha) [%] | Post-emergence efficacy against POAAN ([2]; 80 g/ha) [%]
1 | O=S(=O)(CCl)Oc1ccccc1Oc1ncc(Cl)cn1 [Example I-9] | 100 | 100 | 100 | 90 | 90 | 100 | 100 | 100 | 100 | 90 | 90 | 100 | 100 |  |  |  |  | 
2 | Cc1cccc(OS(=O)(=O)CCCCl)c1Oc1ncc(Cl)cn1 [Example I-12] | 100 | 100 | 100 | 90 |  | 90 | 100 | 100 | 100 | 100 |  | 90 | 90 | 90 | 90 |  |  | 
3 | O=S(=O)(CCCCl)Oc1cccc(F)c1Oc1ncc(Cl)cn1 [Example I-13] |  |  | 100 | 100 |  |  | 100 |  | 100 | 100 |  |  | 90 |  | 90 |  |  | 
4 | CCS(=O)(=O)Oc1ccccc1Oc1ncc(Cl)cn1 [Example I-16] | 100 | 100 | 100 | 100 | 100 | 100 | 100 |  |  | 100 |  |  |  |  | 100 |  |  | 
5 | CCCCCS(=O)(=O)Oc1ccccc1Oc1ncc(Cl)cn1 [Example I-24] | 90 | 100 | 100 | 100 |  |  | 100 | 100 | 100 |  | 80 | 80 | 90 |  |  | 90 |  | 
6 | CC(C)CCS(=O)(=O)Oc1ccccc1Oc1ncc(Cl)cn1 [Example I-25] | 90 | 100 | 100 | 100 | 90 | 100 | 100 | 100 | 100 | 100 | 90 | 100 | 100 |  |  | 90 | 80 | 
7 | Cc1cccc(Oc2ncc(Cl)cn2)c1OS(=O)(=O)CCCC(F)(F)F [Example I-28, 2-[(5-Chloropyrimidin-2-yl)oxy]-6-methylphenyl 4,4,4-trifluorobutane-1-sulfonate] | 100 | 100 | 100 | 100 |  | 90 | 90 |  |  | 100 |  |  |  | 100 | 100 | 90 |  | 
8 | Cc1cccc(Oc2ncc(Cl)cn2)c1OS(=O)(=O)CCC(F)(F)F [Example I-29] | 90 | 100 | 100 | 100 |  | 90 | 100 |  |  | 100 |  |  |  | 90 | 100 | 90 |  | 
9 | O=S(=O)(CCCC(F)(F)F)Oc1c(Br)cccc1Oc1ncc(Cl)cn1 [Example I-30] | 100 | 100 | 100 | 100 |  | 100 | 100 |  |  | 100 |  |  |  |  | 90 | 90 |  | 
10 | O=S(=O)(CCC(F)(F)F)Oc1c(Br)cccc1Oc1ncc(Cl)cn1 [Example I-31] | 100 | 100 | 100 | 100 | 90 | 100 | 100 |  |  | 90 |  |  |  |  | 90 | 90 |  | 
11 | O=S(=O)(CCC(F)(F)F)Oc1c(Cl)cccc1Oc1ncc(Br)cn1 [Example I-32] | 90 | 90 | 100 | 100 |  | 90 | 100 | 100 | 100 | 100 | 100 | 100 | 100 |  | 90 | 100 | 80 | 90
12 | O=S(=O)(CCCC(F)(F)F)Oc1c(Cl)cccc1Oc1ncc(Br)cn1 [Example I-34] | 90 | 90 | 100 | 100 |  |  | 90 | 100 | 100 | 90 | 100 | 100 | 100 |  |  | 100 | 80 | 
13 | C=CCS(=O)(=O)Oc1ccccc1Oc1ncc(Cl)cn1 [Example I-36] |  | 100 | 100 | 90 |  | 90 | 100 |  | 100 | 100 |  |  |  |  | 100 |  |  | 
14 | O=S(=O)(CCC(F)(F)F)Oc1c(Br)cccc1Oc1ncc(F)cn1 [Example I-43] | 100 | 100 | 100 |  |  |  | 100 | 100 | 100 | 100 | 90 | 100 |  |  | 100 |  |  | 
15 | O=S(=O)(CC1CC1(Cl)Cl)Oc1c(F)cccc1Oc1ncc(Cl)cn1 (stereo not drawn) [Example I-57] | 100 | 100 | 100 | 90 |  | 100 | 100 |  |  | 100 |  |  |  |  | 90 | 90 |  | 
16 | O=S(=O)(CCCC(F)(F)C(F)(F)F)Oc1c(F)cccc1Oc1ncc(Cl)cn1 [Example I-68] |  | 100 | 100 | 100 | 90 | 100 | 100 | 100 | 100 | 100 | 100 | 100 | 90 |  |  | 90 | 90 | 
17 | Cc1cccc(Oc2ncc(Cl)cn2)c1OS(=O)(=O)CC1CC(F)(F)C1 [Example I-74] | 90 | 100 | 100 | 100 |  | 90 | 100 | 90 | 100 | 90 | 100 | 100 | 100 |  |  | 100 | 80 | 90
